# Experimental data reported in PMC9096165 (Frontiers in Pharmacology, 2022).
# Read-outs that look alike come from different tables or passages of the source.
# What was measured:
# CXCR1 [1] = assay: CXCR1 mRNA expression in F11 cells (RT PCR); assay type: cell-based; conditions: DF2755A 1 µM + CYP 100 nM
# Source text: (§1) For these experiments, cells at 18th passage were used.
# (§2) Triplicate samples were run for each gene.
# TRPV1 [2] = assay: TRPV1 mRNA expression in F11 cells (RT PCR); assay type: cell-based; conditions: DF2755A 1 µM + CYP 100 nM
# Source text: as §1, §2
# [3] = Pharmacokinetics after single intravenous and oral administration; assay type: in vivo, male Wistar Han rats
# Protocol: Pharmacokinetics of DF2755A, dissolved in saline solution (NaCl 0.9% w/v), was investigated after single intravenous and oral administrations in male Wistar Han rats. DF2755A was given as a single dose in three animals/group by intravenous (bolus) and oral (by gavage) administrations at a dose of 20 mg/kg. Pharmacokinetic evaluation was carried out on blood samples collected on day 1 at six time points from three animals/group (serial sampling).
# CXCL5 = CXCL5 ELISA in bladder tissue; assay type: in vivo, rat; conditions: preventive: 20 mg kg^−1 + 7 mg kg^−1 twice daily for 7 days, CYP rats
# Protocol: (§3) Animals pre-treated with the vehicle or a single high oral dose of DF2755A (20 mg kg^−1; 12 h before the first CYP administration) followed by repeated lower doses administration (7 mg kg^−1 twice daily for 7 days) during IC development were deeply anesthetized with isoflurane (4%) and then killed.
# (§4) After killing, rat abdomen was opened through a midline incision, and bladder and proximal urethra were exposed. A catheter was inserted into the bladder through the urethra and a loose ligature was placed around the neck of the urinary bladder. Bladder was inflated with saline via the catheter to slightly distend the bladder and ligature was tightened to maintain proper distension. Bladder was then excised cutting above the insertion point of ureters, and therefore the bladder neck was not included into the bladder sample. […] One piece (B1) was placed in Eppendorf, then snap-frozen in liquid nitrogen, and stored at −80°C until quantification using ELISA assay. […] For the microscopic observations of bladder inflammation, the following parameters were analyzed: bladder edema in scores (n = 10/group), bladder hemorrhage in scores (n = 10/group), urothelial loss in scores (n = 10/group), and total inflammatory score, which was calculated by adding all the individual lesion scores (n = 10/group). […]
# CXCL1/KC = assay: CXCL1 ELISA in bladder tissue; assay type: in vivo, rat; conditions: preventive: 20 mg kg^−1 + 7 mg kg^−1 twice daily for 7 days, CYP rats
# Protocol: as §3, §4
# F11 cells = assay: F11 cell viability (CellTiter AQueous One); assay type: cell-based; conditions: differentiated F11 cells, 24 h, 0.1 to 5 µM
# Protocol: as §1
# […] Cell viability was determined using the colorimetric method CellTiter AQueous One Solution Cell Proliferation Assay (Promega Corporation, United States), as previously reported ([Brandolini et al., 2017]). The quantity of formed formazan, as a function of viability, was measured at 492 nm using an ELISA plate reader, Infinite F200 (Tecan, Männedorf, Swiss). The results from five independent experiments were expressed as absorbance at 492 nm.
# urinary bladder = assay type: in vivo; conditions: preventive: 20 mg kg^−1 + 7 mg kg^−1 twice daily for 7 days; CYP rats
# Protocol: CYP was administered to the animals by the intraperitoneal (i.p.) route (5 ml kg^−1) at the dosage of 75 mg kg^−1 for three times every third day to elicit chronic bladder irritation, as previously described ([Vizzard et al., 1996]).
# as §3
# After killing, rat abdomen was opened through a midline incision, and bladder and proximal urethra were exposed. A catheter was inserted into the bladder through the urethra and a loose ligature was placed around the neck of the urinary bladder. Bladder was inflated with saline via the catheter to slightly distend the bladder and ligature was tightened to maintain proper distension. Bladder was then excised cutting above the insertion point of ureters, and therefore the bladder neck was not included into the bladder sample. Bladders were opened using scissors and, after gross macroscopic evaluation and weighing, each bladder was cut into two equal pieces (named B1 and B2) and weighted again individually. One piece (B1) was placed in Eppendorf, then snap-frozen in liquid nitrogen, and stored at −80°C until quantification using ELISA assay. The second piece (B2) was placed in 10% formalin and stored at room temperature. Then the same samples were placed in 70% ethanol, then processed in paraffin blocks, and then trimmed according to the longitudinal plane to ensure the correct analysis of all the bladder sample. Sections were stained with hematoxylin and eosin (HE), and slides were then digitalized using a Pathscan® Touch scanner in the bright field mode with a ×20 objective. For the microscopic observations of bladder inflammation, the following parameters were analyzed: bladder edema in scores (n = 10/group), bladder hemorrhage in scores (n = 10/group), urothelial loss in scores (n = 10/group), and total inflammatory score, which was calculated by adding all the individual lesion scores (n = 10/group).
# TRPV1 [4] = assay: TRPV1 Western blotting in bladder homogenates; assay type: in vivo, rat; conditions: preventive: 20 mg kg^−1 + 7 mg kg^−1 twice daily for 7 days; Western blot, CYP rats
# Protocol: as §3
# After killing, rat abdomen was opened through a midline incision, and bladder and proximal urethra were exposed. A catheter was inserted into the bladder through the urethra and a loose ligature was placed around the neck of the urinary bladder. Bladder was inflated with saline via the catheter to slightly distend the bladder and ligature was tightened to maintain proper distension. […] One piece (B1) was placed in Eppendorf, then snap-frozen in liquid nitrogen, and stored at −80°C until quantification using ELISA assay. […] For the microscopic observations of bladder inflammation, the following parameters were analyzed: bladder edema in scores (n = 10/group), bladder hemorrhage in scores (n = 10/group), urothelial loss in scores (n = 10/group), and total inflammatory score, which was calculated by adding all the individual lesion scores (n = 10/group).
# Protease and phosphatase inhibitors were added to the bladder homogenates extracted. […] The extracted proteins were quantified using BCA assay (Thermo, United States). […]
# CXCR1 [5] = test system: CXCR1; parameters: method as in Lopes et al., 2016; conditions: ref Lopes et al., 2016; cited from earlier work
# CXCR2 = CXCR2 mRNA expression in F11 cells (RT PCR); assay type: cell-based; conditions: DF2755A 1 µM + CYP 100 nM
# Source text: as §1, §2
# [6] = intravenous 20 mg kg^−1, male Wistar Han rats
compound,measurement,setting,value
"C[C@H](C(=O)[O-])c1ccc(Nc2nc(C(F)(F)F)cs2)cc1.[Na+] [DF2755A, sodium (2S)-2-(4-{[4-(trifluoromethyl)-1,3-thiazol-2-yl]amino}phenyl)propanoate]",CXCR1 mRNA expression in CYP-exposed cells,CXCR1 [1],restored the mRNA expression of all the targets to control values
same,TRPV1 mRNA expression in CYP-exposed cells,TRPV1 [2],restored TRPV1 mRNA expression to control values
same,overall systemic exposure (AUC0-t (last)),[3]; [6],"578,017 ng/mlh"
same,systemic clearance,[3]; [6],slow
same,half-life,"[3]; male, Wistar Han, rat, plasma, 20 mg/kg, route not stated, read-out: half-life (converted)",408 min
same,bioavailability,"[3]; rat, plasma, po, 20 mg/kg, male Wistar Han rats, read-out: oral absolute bioavailability (F%)",86.2%
same,C0,"[3]; rat, plasma, intravenous 20 mg kg^−1, male Wistar Han rats, read-out: Plasma concentration at time zero (C0)",117 µg/mL
same,half-life,"[3]; rat, plasma, intravenous 20 mg kg^−1, male Wistar Han rats, read-out: t1/2,z (converted)",486 min
same,Vd,"[3]; rat, plasma, intravenous 20 mg kg^−1, male Wistar Han rats, read-out: volume of distribution at steady state",< 1 L/kg
same,Tmax,"[3]; rat, plasma, oral 20 mg/kg, male Wistar Han rats",2 h
same,Cmax,"[3]; rat, plasma, oral 20 mg/kg, male Wistar Han rats, read-out: maximum plasma concentration (Cmax)",43500 ng/mL
same,AUC(0-t),"[3]; rat, plasma, oral 20 mg/kg, male Wistar Han rats, read-out: overall systemic exposure (AUC0-t (last))",498 µg·h/mL
same,distribution volume,[3]; route not stated,0.35 L/kg
same,bladder tissue expression of CXCL5 versus vehicle-treated rats,CXCL5,strongly inhibited
same,bladder tissue expression of CXCL1/KC versus vehicle-treated rats,CXCL1/KC,strongly inhibited
same,neuronal cell viability,F11 cells,did not modulate neuronal cell viability
same,"histological evaluated parameters (edema, hemorrhage, urothelial loss, total inflammatory score), DF2755A- versus vehicle-treated rats",urinary bladder,no significant difference
same,TRPV1 bladder expression versus vehicle-treated animals,TRPV1 [4],reduced
same,IC50,CXCR1 [5],4.2 nM
same,CXCR2 mRNA expression in CYP-exposed cells,CXCR2,restored the mRNA expression of all the targets to control values
